Columns and labels:
HIV-1 RT = HIV-1 RT (Human immunodeficiency virus type 1 group M subtype B, UniProt P03366); assay: Heteropolymer HIV reverse Transcriptase Assay: Inhibitor IC50 Determination; assay type: biochemical; conditions: RNA-dependent DNA polymerase activity, biotinylated DNA primer/RNA template, SPA beads, 30°C 30 min
Procedure: Heteropolymer HIV reverse Transcriptase Assay: Inhibitor IC50 Determination
RNA-dependent DNA polymerase activity was measured using a biotinylated primer oligonucleotide and tritiated dNTP substrate. Newly synthesized DNA was quantified by capturing the biotinylated primer molecules on streptavidin coated Scintillation Proximity Assay (SPA) beads (Amersham). The sequences of the polymerase assay substrate were: 18nt DNA primer, 5′-Biotin/GTC CCT GTT CGG GCG CCA-3′ (SEQ. ID NO. 2); 47nt RNA template, 5′-GGGUCUCUCUGGUUAGACCACUCUAGCAGUGGCGCCCGAACAGGGAC-3′ (SEQ ID NO. 1). The biotinylated DNA primer was obtained from the Integrated DNA Technologies Inc. and the RNA template was synthesized by Dharmacon. The DNA polymerase assay (final volume 50 μl) contained 32 nM biotinylated DNA primer, 64 nM RNA substrate, dGTP, dCTP, dTTP (each at 5 μM), 103 nM [^3H]-dATP (specific activity=[…]), in 45 mM Tris-HCl, pH 8.0, 45 mM NaCl, 2.7 mM Mg(CH3COO)2, 0.045% Triton X-100 w/v, 0.9 mM EDTA. The reactions contained 5 μl of serial compound dilutions in 100% DMSO for IC50 determination and the final concentrations of DMSO were 10%. Reactions were initiated by the addition of 30 μl of the HIV-1-RT enzyme (final concentrations of 1-3 nM). Protein concentrations were adjusted to provide linear product formation for at least 30 min of incubation. After incubation at 30°C for 30 min, the reaction was quenched by addition of 50 μl of 200 mM EDTA (pH 8.0) and 2 mg/ml SA-PVT SPA beads (Amersham, RPNQ0009, reconstituted in 20 mM Tris-HCl, pH 8.0, 100 mM EDTA and 1% BSA). The beads were left to settle overnight and the SPA signals were counted in a 96-well top counter-NXT (Packard). IC50 values were obtained by sigmoidal regression analysis using GraphPad Prism 3.0 (GraphPad Software, Inc.).

## CC(C)(CN1CCCC1)NC(=O)c1ccc(NC(=O)Cc2ccc(Br)c(Oc3cc(Cl)cc(C#N)c3)c2F)c(Cl)c1 [Compound I-45, 4-{2-[4-Bromo-3-(3-chloro-5-cyano-phenoxy)-2-fluoro-phenyl]-acetylamino}-3-chloro-N-(1,1-dimethyl-2-pyrrolidin-1-yl-ethyl)-benzamide]
HIV-1 RT
  IC50: 4.1 nM
other
  melting point: 70 °C

## CN1CCC(NC(=O)c2ccc(NC(=O)Cc3ccc(Br)c(Oc4cc(Cl)cc(C#N)c4)c3F)c(Cl)c2)C1 (stereo not drawn) [Compound I-50, 4-{2-[4-Bromo-3-(3-chloro-5-cyano-phenoxy)-2-fluoro-phenyl]-acetylamino}-3-chloro-N-(1-methyl-pyrrolidin-3-yl)-benzamide]
HIV-1 RT
  IC50: 6.9 nM
other
  melting point: 204 °C

## N#Cc1cc(Cl)cc(Oc2c(Br)ccc(CC(=O)Nc3ccc(C(=O)NC4CCS(=O)(=O)C4)cc3Cl)c2F)c1 (stereo not drawn) [Compound I-55, 4-{2-[4-Bromo-3-(3-chloro-5-cyano-phenoxy)-2-fluoro-phenyl]-acetylamino}-3-chloro-N-(1,1-dioxo-tetrahydro-1λ^6-thiophen-3-yl)-benzamide]
HIV-1 RT
  IC50: 16.3 nM
other
  melting point: 236.6 °C

Reference: patent US7754919B2, “Non-nucleoside reverse transcriptase inhibitors” (Roche Palo Alto LLC, priority 2005, dated 2010)
